Measured values: patent publication US9062072B2, “Inhibitors of HIF and angiogenesis” (Emory University, priority 2010, dated 2015)
Read-outs that look alike come from different tables or passages of the source.

System: HIF-1-mediated transcription
Test: HIF-1-mediated transcription under hypoxia, LN229-HRE-Lux luciferase reporter assay
Assay type: cell-based, human
Conditions: for IC50: LN229-HRE-Lux cells, hypoxia (1% O2)
Protocol: The synthesized analogues were evaluated for their potential to inhibit HIF-1-mediated transcription under hypoxia (1% O2) using a human glioma cell line LN229-HRE-Lux, which stably expresses a hypoxia-responsive luciferase reporter gene (Table 1-9). […] The compounds were tested in single (n=1) or multiple (n>1) independent experiments each carried out in quadruplicate.
LN229-HRE-luciferase human glioblastoma cells were used to perform the assay. […] 48-well plates were seeded with 3.10^4 cells per well and incubated under normoxic conditions for 24 h. Cells were then pre-treated with different concentrations of KCN-1 or its analogues for 1 h and then transferred to hypoxic conditions. After 24 h, media was aspirated, cells were lysed and reporter activity was measured in the lysate using Luciferase Assay System (Promega, Madison, Wis.) with 20/20^n Luminometer (Promega).

[1] = Homo sapiens, 24 h, Table 7, 24 h, results from single runs, read-out: IC50
[2] = Homo sapiens, 24 h, 24 h, read-out: IC50
[3] = Homo sapiens, 24 h, Table 8, 24 h, results from single runs, read-out: IC50
[4] = Homo sapiens, 24 h, Table 9, results from single runs

SMILES | IC50 [1] [µM] | IC50 [3] [µM] | other results
COc1ccc(N(Cc2ccc3c(n2)C=CC(C)(C)O3)S(=O)(=O)c2ccc(OC)c(OC)c2)cc1OC [Compound 26c, N-(3,4-Dimethoxyphenyl)-N-((2,2-dimethyl-2H-pyrano[3,2-b]pyridin-6-yl)methyl)-3,4-dimethoxybenzenesulfonamide] | > 25 |  | 
COc1ccc(S(=O)(=O)N(Cc2ccc3c(n2)C=CC(C)(C)O3)C2CCCC2)cc1OC [Compound 26d, N-Cyclopentyl-N-((2,2-dimethyl-2H-pyrano[3,2-b]pyridin-6-yl)methyl)-3,4-dimethoxybenzenesulfonamide] | 0.6 |  | 
COc1ccc(S(=O)(=O)N(Cc2ccc3c(n2)C=CC(C)(C)O3)C2CCCCC2)cc1OC [Compound 26e, N-Cyclohexyl-N-((2,2-dimethyl-2H-pyrano[3,2-b]pyridin-6-yl)methyl)-3,4-dimethoxybenzenesulfonamide] | 0.8 |  | 
COc1ccc(S(=O)(=O)N(Cc2ccc3c(n2)C=CC(C)(C)O3)C2CCCCCC2)cc1OC [Compound 26g, N-Cycloheptyl-N-((2,2-dimethyl-2H-pyrano[3,2-b]pyridin-6-yl)methyl)-3,4-dimethoxybenzenesulfonamide] | 6.6 |  | 
COc1ccc(S(=O)(=O)N(Cc2ccc3c(n2)C=CC(C)(C)O3)C2CCCCCCC2)cc1OC [Compound 26h, N-Cyclooctyl-N-((2,2-dimethyl-2H-pyrano[3,2-b]pyridin-6-yl)methyl)-3,4-dimethoxybenzenesulfonamide] | 0.7 |  | 
COc1ccc(S(=O)(=O)N(Cc2ccc3c(n2)C=CC(C)(C)O3)C2CCC2)cc1OC [Compound 26i, N-Cyclobutyl-N-((2,2-dimethyl-2H-pyrano[3,2-b]pyridin-6-yl)methyl)-3,4-dimethoxybenzenesulfonamide] | 0.25 |  | IC50 [2]: 0.25 µM; fold higher potency than KCN-1 (IC50 compared with KCN-1, LN229-HRE-Lux reporter assay): ~3 fold; IC50 (24 h, read-out: IC50): 0.4 µM
COc1ccc(S(=O)(=O)N(Cc2ccc3c(n2)C=CC(C)(C)O3)c2ccc(F)cc2)cc1OC [Compound 26j, N-((2,2-dimethyl-2H-pyrano[3,2-b]pyridin-6-yl)methyl)-N-(4-fluorophenyl)-3,4-dimethoxybenzenesulfonamide] | 5.7 |  | 
CC1(C)C=Cc2nc(CN(c3ccccc3)S(=O)(=O)C3CCCCC3)ccc2O1 [Compound 26k, N-((2,2-Dimethyl-2H-pyrano[3,2-b]pyridin-6-yl)methyl)-N-phenylcyclohexanesulfonamide] |  |  | IC50 (Homo sapiens, 24 h, Table 8, results from single runs): 0.4 µM
CC(C)S(=O)(=O)N(Cc1ccc2c(n1)C=CC(C)(C)O2)c1ccccc1 [Compound 26l, N-((2,2-Dimethyl-2H-pyrano[3,2-b]pyridin-6-yl)methyl)-N-phenylpropane-2-sulfonamide] |  | 13.4 | 
CC1(C)C=Cc2nc(CN(c3ccccc3)S(=O)(=O)C3CC3)ccc2O1 [Compound 26m, N-((2,2-Dimethyl-2H-pyrano[3,2-b]pyridin-6-yl)methyl)-N-phenylcyclopropanesulfonamide] |  | > 25 | 
CCCCS(=O)(=O)N(Cc1ccc2c(n1)C=CC(C)(C)O2)c1ccccc1 [Compound 26n, N-((2,2-Dimethyl-2H-pyrano[3,2-b]pyridin-6-yl)methyl)-N-phenylbutane-1-sulfonamide] |  | 5 | 
CCCS(=O)(=O)N(Cc1ccc2c(n1)C=CC(C)(C)O2)c1ccccc1 [Compound 26o, N-((2,2-Dimethyl-2H-pyrano[3,2-b]pyridin-6-yl)methyl)-N-phenylpropane-1-sulfonamide] |  | 6.4 | 
CC(C)CS(=O)(=O)N(Cc1ccc2c(n1)C=CC(C)(C)O2)c1ccccc1 [Compound 26p, N-((2,2-Dimethyl-2H-pyrano[3,2-b]pyridin-6-yl)methyl)-2-methyl-N-phenylpropane-1-sulfonamide] |  | 0.9 | 
CC1(C)C=Cc2nc(CN(c3ccccc3)S(=O)(=O)c3ccc(-c4ccccc4)cc3)ccc2O1 [Compound 26q, N-((2,2-Dimethyl-2H-pyrano[3,2-b]pyridin-6-yl)methyl)-N-phenylbiphenyl-4-sulfonamide] |  | 3.4 | 
CC1(C)C=Cc2nc(CN(c3ccccc3)S(=O)(=O)c3cccc4cccnc34)ccc2O1 [Compound 26s, N-((2,2-Dimethyl-2H-pyrano[3,2-b]pyridin-6-yl)methyl)-N-phenylquinoline-8-sulfonamide] |  | 0.9 | IC50 [2]: 0.9 µM
CC1(C)C=Cc2nc(CN(c3ccccc3)S(=O)(=O)c3ccc4c(c3)OCCO4)ccc2O1 [Compound 26t, N-((2,2-dimethyl-2H-pyrano[3,2-b]pyridin-6-yl)methyl)-N-phenyl-2,3-dihydrobenzo[b][1,4]dioxine-6-sulfonamide] |  | 0.9 | 
COc1ccc(S(=O)(=O)N(Cc2cc3c(cn2)OC(C)(C)C=C3)c2ccccc2)cc1 [Compound 36a, N-((2,2-Dimethyl-2H-pyrano[2,3-c]pyridin-6-yl)methyl)-4-methoxy-N-phenylbenzenesulfonamide] |  |  | IC50 (Homo sapiens, 24 h, Table 9, 24 h, results from single runs, read-out: IC50): 1.4 µM; IC50 [2]: 1.42 µM
CC1(C)C=Cc2cc(CN(c3ccccc3)S(=O)(=O)c3ccc([N+](=O)[O-])cc3)ncc2O1 [Compound 36b, N-((2,2-Dimethyl-2H-pyrano[2,3-c]pyridin-6-yl)methyl)-4-nitro-N-phenylbenzenesulfonamide] |  |  | IC50 [4]: 1.8 µM; IC50 (Homo sapiens, 24 h): 1.8 µM
CC(C)c1ccc(S(=O)(=O)N(Cc2cc3c(cn2)OC(C)(C)C=C3)C2CCCCC2)cc1 [Compound 36c, N-Cyclohexyl-N-((2,2-dimethyl-2H-pyrano[2,3-c]pyridin-6-yl)methyl)-4-isopropylbenzenesulfonamide] |  |  | IC50 [4]: 1.1 µM; IC50 (Homo sapiens, 24 h): 1.08 µM
COc1ccc(S(=O)(=O)N(Cc2cc3c(cn2)OC(C)(C)C=C3)C2CCCCC2)cc1OC [Compound 36d, N-Cyclohexyl-N-((2,2-dimethyl-2H-pyrano[2,3-c]pyridin-6-yl)methyl)-3,4-dimethoxybenzenesulfonamide] |  |  | IC50 [4]: 5.8 µM
COc1ccc(S(=O)(=O)N(Cc2ccc3c(c2)C=CC(C)(C)O3)c2ccccc2)cc1OC [KCN-1, N-((2,2-dimethyl-2H-chromen-6-yl)methyl)-3,4-dimethoxy-N-phenylbenzenesulfonamide, reference compound] |  |  | IC50 (Homo sapiens, n=26, read-out: IC50): 0.7 ± 0.4 µM
